Measured values taken from ChEMBL document CHEMBL1649182, “Binding of faropenem and other beta-lactam agents to penicillin-binding proteins of pneumococci with various beta-lactam susceptibilities” (Antimicrob Agents Chemother, 2009).
Converted amounts (≈) assume the structure as drawn.

Experiments:
[1] = Displacement of Biocillin FL from Streptococcus pneumoniae 3665 PBP2A
Streptococcus pneumoniae = test: Antimicrobial activity against Streptococcus pneumoniae serotype 19A; type: functional

Row | Structure (SMILES) | IC50 [1] | MIC90 (Streptococcus pneumoniae)
1 | CC1(C)S[C@@H]2[C@H](NC(=O)[C@H](N)c3ccc(O)cc3)C(=O)N2[C@H]1C(=O)O [AMOXICILLIN] | 0.05 µg/mL (≈ 0.137 µM) | –
2 | CO/N=C(\C(=O)N[C@@H]1C(=O)N2C(C(=O)O)=C(COC(N)=O)CS[C@H]12)c1ccco1 [CEFUROXIME] | 0.009 µg/mL (≈ 0.0212 µM) | –
3 | C[C@@H](O)[C@H]1C(=O)N2C(C(=O)O)=C([C@H]3CCCO3)S[C@H]12 [FAROPENEM] | 0.015 µg/mL (≈ 0.0526 µM) | 1 µg/mL (≈ 3.5 µM)
4 | C[C@@H](O)[C@H]1C(=O)N2C(C(=O)O)=C(SCCNC=N)C[C@H]12 [IMIPENEM ANHYDROUS] | 0.233 µg/mL (≈ 0.778 µM) | –
5 | CC1(C)S[C@@H]2[C@H](NC(=O)Cc3ccccc3)C(=O)N2[C@H]1C(=O)O [PENICILLIN G] | 0.016 µg/mL (≈ 0.0478 µM) | –
